One series has as its target JAK1 (Homo sapiens (Human), UniProt P23458). Kind of series: JAK1 inhibition assay. It is filed as biochemical. As to the method:
(§1) Plates were washed 6 times with 300 μL per well of a 75 mM phosphoric acid solution and the bottom of the plates was sealed. 40 μL/well of Microscint-20 was added, the top of the plates was sealed and readout was performed using the Topcount (Perkin Elmer). Kinase activity was calculated by subtracting counts per minute (cpm) obtained in the presence of a positive control inhibitor (10 μM staurosporine) from cpm obtained in the presence of vehicle. The ability of a test compound to inhibit this activity was determined as:
(§2) Percentage inhibition=((cpm determined for sample with test compound present−cpm determined for sample with positive control inhibitor)divided by(cpm determined in the presence of vehicle−cpm determined for sample with positive control inhibitor))*100.
Dose dilution series were prepared for the compounds enabling the testing of dose-response effects in the JAK1 assay and the calculation of the IC50 for each compound.

The target of a further series is TYK2 (Homo sapiens (Human), UniProt P29597). Kind of series: TYK2 inhibition assay. It is filed as biochemical. As to the method:
as §1, with “After 90 min at 30° C., reactions were stopped by adding 25 μL/well of 150 mM phosphoric acid. […] Plates” for “Plates”
as §2
Dose dilution series were prepared for the compounds enabling the testing of dose-response effects in the TYK2 assay and the calculation of the IC50 for each compound.

For the next series, the target named is JAK3 (Homo sapiens (Human), UniProt P52333). Kind of series: JAK3 inhibition assay. It is filed as biochemical. The procedure:
as §1, §2
Dose dilution series were prepared for the compounds enabling the testing of dose-response effects in the JAK3 assay and the calculation of the IC50 for each compound.

The nature of series [1]: Steady state PK in rat CIA model. As to conditions: plasma; for AUC(0-t): read-out: AUC (0-24 h); for half-life: read-out: T½ (converted). It is filed as in vivo. As to the method:
At day 7 or 11, blood samples were collected at the retro-orbital sinus with lithium heparin as anti-coagulant at the following time points: predose, 1, 3 and 6 hrs. Whole blood samples were centrifuged and the resulting plasma samples were stored at −20° C. pending analysis. Plasma concentrations of each test compound were determined by an LC-MS/MS method in which the mass spectrometer was operated in positive electrospray mode. Pharmacokinetic parameters were calculated using Winnonlin® (Pharsight®, United States) and it was assumed that the predose plasma levels were equal to the 24 hrs plasma levels.

The test system of the next series is rat CIA model. Kind of series: Rat collagen induced arthritis (CIA) model. On the set-up: key to Clinical Assessment End point score / Clinical Assessment AUC Score / Paw swelling / Larsen' Score: a “*” indicates that there was a statistically significant improvement in the score, p 0.05 vs. untreated control. It is filed as in vivo. The procedure:
Completed Freund's adjuvant (CFA) and incomplete Freund's adjuvant (IFA) were purchased from Difco. Bovine collagen type II (CII), lipopolysaccharide (LPS), and Enbrel was obtained from Chondrex (Isle d'Abeau, France); Sigma (P4252, L′Isle d'Abeau, France), Whyett (25 mg injectable syringe, France) Acros Organics (Palo Alto, Calif.), respectively. All other reagents used were of reagent grade and all solvents were of analytical grade.
Dark Agouti rats (male, 7-8 weeks old) were obtained from Harlan Laboratories (Maison-Alfort, France). Rats were kept on a 12 hr light/dark cycle (0700-1900). Temperature was maintained at 22° C., and food and water were provided ad libitum.
One day before the experiment, CII solution (2 mg/mL) was prepared with 0.05 M acetic acid and stored at 4° C. Just before the immunization, equal volumes of adjuvant (IFA) and CII were mixed by a homogenizer in a pre-cooled glass bottle in an ice water bath. Extra adjuvant and prolonged homogenization may be required if an emulsion is not formed. 0.2 mL of the emulsion was injected intradermally at the base of the tail of each rat on day 1, a second booster intradermal injection (CII solution at 2 mg/mL in CFA 0.1 mL saline) was performed on day 9. This immunization method was modified from published methods (Sims et al, 2004; Jou et al., 2005).
The therapeutic effects of the compounds were tested in the rat CIA model. Rats were randomly divided into equal groups and each group contained 10 rats. All rats were immunized on day 1 and boosted on day 9. Therapeutic dosing lasted from day 16 to day 30. The negative control group was treated with vehicle (MC 0.5%) and the positive control group with Enbrel (10 mg/kg, 3× week, s.c.). A compound of interest was typically tested at 3 doses, e.g. 3, 10, 30 mg/kg, p.o.
Arthritis is scored according to the method of Khachigian 2006, Lin et al 2007 and Nishida et al. 2004). The swelling of each of the four paws is ranked with the arthritic score as follows: 0-no symptoms; 1-mild, but definite redness and swelling of one type of joint such as the ankle or wrist, or apparent redness and swelling limited to individual digits, regardless of the number of affected digits; 2-moderate redness and swelling of two or more types of joints; 3-severe redness and swelling of the entire paw including digits; 4-maximally inflamed limb with involvement of multiple joints (maximum cumulative clinical arthritis score 16 per animal) (Nishida et al., 2004).
The area under the curve (AUC) from day 1 to day 14 was calculated for each individual rat. The AUC of each animal was divided by the average AUC obtained for the vehicle in the study from which the data on that animal was obtained and multiplied by 100 (i.e. the AUC was expressed as a percentage of the average vehicle AUC per study).
The clinical score difference for each animal was divided by the average clinical score difference obtained for the vehicle in the study from which the data on that animal was obtained and multiplied by 100 (i.e. the difference was expressed as a percentage of the average clinical score difference for the vehicle per study).
X-ray photos were taken of the hind paws of each individual animal. […]

In series [2] the test system is JAK1-dependent pathway (IL-6 stimulated STAT1 phosphorylation in CD4+ lymphocytes) in human whole blood. Briefly: cells. The following applies: Lymphocyte, read-out: pIC50 in the inhibition of STAT1 phosphorylation (converted).
Protocol: Therefore, blood was taken from human volunteers who gave informed consent. Blood was then equilibrated for 30 minutes at 37° C. under gentle rocking, then aliquoted in Eppendorf tubes. Compound was added at different concentrations and incubated at 37° C. for 30 minutes under gentle rocking and subsequently stimulated for 20 minutes at 37° C. under gentle rocking with interleukin 6 (IL-6) for JAK1-dependent pathway stimulation or GM-CSF for JAK2-dependent pathway stimulation. Phospho-STAT1 and phospho-STAT5 were then evaluated using FACS analysis.
The increase in phosphorylation of STAT1 by IL-6 in lymphocytes was measured using anti phospho-STAT1 antibody by FACS.
A 3-fold dilution series of the compound was prepared in DMSO (10 mM stock solution). Control-treated samples received DMSO instead of compound. All samples were incubated with a 1% final DMSO concentration.
Human blood was collected in heparinized tubes. The blood was divided in aliquots of 148.54 μl. […]
50,000 total events were counted and Phospho-STAT1 positive cells were measured after gating on CD4+ cells, in the lymphocyte gate. Data were analyzed using the FACSDiva software and the percentage inhibition of IL-6 stimulation calculated on the percentage of positive cells for phospho-STAT1 on CD4+ cells.
Setting [3] is: 0.1 mg/kg/day, normalized score.
Setting [4] is: 0.3 mg/kg/day, normalized score.

From US8563545B2, “Compound useful for the treatment of degenerative and inflammatory diseases” (Galapagos NV, priority 2009, dated 2013) come the findings set out here.

The structures appear in SMILES notation. pIC50: −log10 of the molar value. Where two headings read alike, the source gives them in different places.

Chain of JAK3 (P52333 781-1124): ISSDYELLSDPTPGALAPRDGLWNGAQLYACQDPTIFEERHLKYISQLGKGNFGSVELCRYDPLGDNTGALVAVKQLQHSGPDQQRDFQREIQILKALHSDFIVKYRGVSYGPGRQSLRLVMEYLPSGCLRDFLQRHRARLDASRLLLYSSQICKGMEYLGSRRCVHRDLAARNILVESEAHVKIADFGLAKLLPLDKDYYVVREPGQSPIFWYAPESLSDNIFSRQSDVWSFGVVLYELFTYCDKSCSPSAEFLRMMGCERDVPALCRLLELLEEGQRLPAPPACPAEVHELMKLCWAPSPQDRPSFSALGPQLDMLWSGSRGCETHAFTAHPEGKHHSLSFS
Chain of TYK2 (P29597 871-1187): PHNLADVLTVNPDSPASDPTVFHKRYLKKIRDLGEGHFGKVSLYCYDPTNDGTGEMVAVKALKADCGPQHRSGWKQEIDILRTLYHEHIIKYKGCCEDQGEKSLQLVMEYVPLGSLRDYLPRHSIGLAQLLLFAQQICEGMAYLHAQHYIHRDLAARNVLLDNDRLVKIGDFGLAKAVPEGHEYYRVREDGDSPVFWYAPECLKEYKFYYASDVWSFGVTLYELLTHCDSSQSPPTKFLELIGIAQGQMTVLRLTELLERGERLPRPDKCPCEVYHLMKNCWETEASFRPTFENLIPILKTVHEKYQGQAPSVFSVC
Chain of JAK1 (P23458 850-1154): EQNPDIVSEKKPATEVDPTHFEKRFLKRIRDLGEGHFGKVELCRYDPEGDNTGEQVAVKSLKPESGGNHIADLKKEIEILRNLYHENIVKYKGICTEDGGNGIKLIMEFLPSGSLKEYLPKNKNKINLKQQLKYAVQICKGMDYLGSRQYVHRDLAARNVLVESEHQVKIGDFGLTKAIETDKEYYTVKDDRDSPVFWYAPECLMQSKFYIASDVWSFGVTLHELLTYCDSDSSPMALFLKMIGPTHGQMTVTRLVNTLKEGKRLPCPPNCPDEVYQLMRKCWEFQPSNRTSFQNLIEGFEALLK

As for `O=C(Nc1nc2cccc(-c3ccc(CN4CCC(F)(F)CC4)cc3)n2n1)C1CC1` [Compound 11, Cyclopropanecarboxylic acid {5-[4-(4,4-difluoro-piperidin-1-ylmethyl)-phenyl]-[1,2,4]triazolo [1,5-a]pyridin-2-yl}-amide], the results for the negative logarithm of the IC50 (pIC50) on JAK1, against TYK2 and against JAK3 were 8.11, 6.90 and 6.71, respectively.
In the case of `O=C(Nc1nc2cccc(-c3ccc(CN4CCOCC4)cc3)n2n1)C1CC1` [Compound 2, N-(5-(4-(morpholinomethyl)phenyl)-[1,2,4]triazolo[1,5-a]pyridin-2-yl)cyclopropanecarboxamide], in series [1] (PO 10 mg/kg/day), the concentration peaked (Cmax) at 867 ng/mL; the time to peak (Tmax) – broadly, the time from dosing to the highest level – stood at 1 h; the AUC(0-t) was found to be 2020 ng·h/mL; the half-life is 1.17 h. In addition, in series [1] (PO 30 mg/kg/day), the Cmax (in general, the highest concentration seen after dosing) was found to be 2630 ng/mL; the Tmax is 1 h; the AUC(0-t) was 7810 ng·h/mL; the half-life was 3.36 h. The pIC50 – broadly, the IC50 on a negative log10 scale, so that one unit is a factor of ten – against TYK2 was 5.68. Further, at JAK3, the pIC50 is 5.55. Further, in the series with rat CIA model (10 mg/kg/day), the “Clinical Assessment End point score” value is “*”. Besides, in the series with rat CIA model (30 mg/kg/day), the “Clinical Assessment End point score” value is “*”, the “Larsen' Score” value was “*” and the Paw swelling result is recorded as “*”. Also, the “normalized clinical score values” in the series on rat CIA model (dose of 10 mg/kg) is on record as “statistically significant improvements”. In addition, in the series on rat CIA model (dose of 30 mg/kg), the Larsen score result is “statistically significant increase” and the paw swelling readout result was “statistically significant increase”.
Consider `O=C(Nc1nc2cccc(-c3ccc(C(=O)N4CCS(=O)(=O)CC4)cc3)n2n1)C1CC1` [Compound 10, Cyclopropanecarboxylic acid {5-[4-(1,1-dioxo-1-thiomorpholine-4-carbonyl)-phenyl]-[1,2,4]triazolo [1,5-a]pyridin-2-yl}-amide], for which the pIC50 against JAK1 was 7.74.
Take `O=C(Nc1nc2cccc(-c3ccc(CN4CCS(=O)(=O)CC4)cc3)n2n1)C1CC1` [Compound 1, Cyclopropanecarboxylic acid {5-[4-(1,1-dioxo-1-thiomorpholin-4-ylmethyl)-phenyl]-[1,2,4]triazolo [1,5-a]pyridin-2-yl}-amide]: the Cmax came to 5.18 ng/mL in series [1] (PO 0.1 mg/kg/day); 19.3 ng/mL in series [1] (PO 0.3 mg/kg/day); 102 ng/mL in series [1] (PO 1 mg/kg/day); 363 ng/mL in series [1] (PO 3 mg/kg/day); 1170 ng/mL in series [1] (PO 10 mg/kg/day); 3800 ng/mL in series [1] (PO 30 mg/kg/day). Also, the Tmax in series [1] (PO 0.1 mg/kg/day) stood at 3 h; in series [1] (PO 0.3 mg/kg/day), 1 h; in series [1] (PO 1 mg/kg/day) it was 1 h; in series [1] (PO 3 mg/kg/day), 1 h; in series [1] (PO 10 mg/kg/day) it was 1 h; in series [1] (PO 30 mg/kg/day) it was 1 h. Further, the AUC(0-t) worked out at 30 ng·h/mL in series [1] (PO 0.1 mg/kg/day); 163 ng·h/mL in series [1] (PO 0.3 mg/kg/day); 931 ng·h/mL in series [1] (PO 1 mg/kg/day); 1930 ng·h/mL in series [1] (PO 3 mg/kg/day); 7170 ng·h/mL in series [1] (PO 10 mg/kg/day); 27800 ng·h/mL in series [1] (PO 30 mg/kg/day). Also, the half-life is 3.6 h in series [1] (PO 1 mg/kg/day), 5.6 h in series [1] (PO 3 mg/kg/day), 4.5 h in series [1] (PO 10 mg/kg/day) and 3.9 h in series [1] (PO 30 mg/kg/day). Besides, in series [2], the IC50 was 832 nM. The “improvement in efficacy over Compound 2 when the oral doses are compared” value in the series on rat CIA model was determined as 100 fold. In addition, the “Clinical Assessment AUC Score” value with rat CIA model (setting [3]) is on record as “*”; in the series on rat CIA model (setting [4]), “*”; with rat CIA model (1 mg/kg/day, normalized score), “*”; with rat CIA model (3 mg/kg/day, normalized score) it was “*”. Besides, the “Clinical Assessment End point score” value is reported as “*” in the series on rat CIA model (setting [3]); “*” in the series with rat CIA model (setting [4]); “*” with rat CIA model (1 mg/kg/day, normalized score); “*” in the series with rat CIA model (3 mg/kg/day, normalized score). Also, the Paw swelling entry in the series on rat CIA model (0.3 mg/kg/day), in the series with rat CIA model (1 mg/kg/day) and in the series with rat CIA model (3 mg/kg/day) was “*” each time. The “Larsen' Score” value in the series with rat CIA model (3 mg/kg/day) is given as “*”. For the same compound, in the series on rat CIA model (dose of 0.1 mg/kg), the “normalized clinical score values (AUC or difference from day 1 to day 14)” value is reported as “statistically significant improvements”. Besides, the paw swelling readout entry in the series on rat CIA model (dose of 0.3 mg/kg) was “statistically significant increase”. The Larsen score result in the series with rat CIA model (dose of 3 mg/kg) is listed as “statistically significant increase”.
